Measurements taken from ChEMBL document CHEMBL1201862, “PubChem BioAssay data set” (2004).
The source made the active and inactive calls. Unless noted, the rule behind the calls is not given here.

Experiments:
[1] = molecular target: T1, Tyrosine-protein phosphatase non-receptor type 7 (Homo sapiens, UniProt P35236); assay: redox-dependent HePTP inhibition, mechanism study, biochemical, fluorescence (AID 2068); format: functional
T1 sequence (P35236 whole entry): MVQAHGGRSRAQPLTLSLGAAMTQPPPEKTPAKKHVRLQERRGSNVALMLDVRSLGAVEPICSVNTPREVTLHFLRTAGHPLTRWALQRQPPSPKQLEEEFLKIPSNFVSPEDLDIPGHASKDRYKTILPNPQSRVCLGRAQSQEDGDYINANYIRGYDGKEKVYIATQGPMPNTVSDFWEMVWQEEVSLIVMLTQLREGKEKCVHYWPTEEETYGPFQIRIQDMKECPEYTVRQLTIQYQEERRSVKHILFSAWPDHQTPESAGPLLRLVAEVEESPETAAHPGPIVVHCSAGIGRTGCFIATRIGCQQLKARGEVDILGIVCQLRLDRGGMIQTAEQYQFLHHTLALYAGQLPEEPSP

[2] = molecular target: T2, G-protein coupled receptor 35 (Homo sapiens, UniProt Q9HC97); assay: SAR Analysis for the identification of Selective Antagonists of ERK1/2 Activity in GPR35-Overexpressing U2OS Cells - Set 2. [Related pubchem assays (depositor defined):AID2058, AID2079]; format: functional, cell-based
[3] = molecular target: T2, G-protein coupled receptor 35; assay: SAR analysis of Antagonists of the GPR35 Receptor using an Image-Based Assay - Set 5. [Related pubchem assays (depositor defined):AID2058, AID2079]; format: functional
[4] = molecular target: G-protein coupled receptor 55 (Homo sapiens, UniProt Q9Y2T6); assay: SAR Analysis of Selective Antagonists of GPR55 using an Image-Based Assay - Set 3. [Related pubchem assays (depositor defined):AID2058, AID2079]; format: functional
Coagulation factor XII [5] = molecular target: T3, Coagulation factor XII (Homo sapiens, UniProt P00748); assay: Factor XIIa Dose Response Confirmation from Single Well HTS. [Related pubchem assays (depositor defined):AID701]; format: functional
T3 sequence (P00748 whole entry): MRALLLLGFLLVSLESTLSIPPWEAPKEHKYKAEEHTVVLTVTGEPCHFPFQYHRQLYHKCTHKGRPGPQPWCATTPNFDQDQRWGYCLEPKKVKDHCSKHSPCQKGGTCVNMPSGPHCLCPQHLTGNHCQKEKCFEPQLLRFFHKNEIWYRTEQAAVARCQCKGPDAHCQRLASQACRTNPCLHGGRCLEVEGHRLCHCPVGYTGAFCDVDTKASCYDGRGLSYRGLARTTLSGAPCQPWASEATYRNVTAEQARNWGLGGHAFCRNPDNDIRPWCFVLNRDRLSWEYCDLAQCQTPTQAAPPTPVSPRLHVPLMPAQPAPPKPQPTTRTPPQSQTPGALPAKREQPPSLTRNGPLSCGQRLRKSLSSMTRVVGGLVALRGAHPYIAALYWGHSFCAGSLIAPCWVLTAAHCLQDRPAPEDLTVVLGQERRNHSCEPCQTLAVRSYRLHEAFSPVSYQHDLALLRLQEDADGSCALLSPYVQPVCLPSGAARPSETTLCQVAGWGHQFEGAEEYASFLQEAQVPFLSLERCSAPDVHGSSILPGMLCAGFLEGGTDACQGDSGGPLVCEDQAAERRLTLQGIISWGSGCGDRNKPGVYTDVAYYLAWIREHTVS

Coagulation factor XII [6] = molecular target: T3, Coagulation factor XII; assay: FXIIa inhibitor potency, concentration-response, biochemical (AID 716); format: functional
Hexokinase HKDC1 = molecular target: T4, Hexokinase HKDC1 (Homo sapiens, UniProt Q2TB90); assay: HKDC1 hexokinase inhibitors, dose response, biochemical, W721R variant (AID 504729); format: functional
T4 sequence (Q2TB90 whole entry): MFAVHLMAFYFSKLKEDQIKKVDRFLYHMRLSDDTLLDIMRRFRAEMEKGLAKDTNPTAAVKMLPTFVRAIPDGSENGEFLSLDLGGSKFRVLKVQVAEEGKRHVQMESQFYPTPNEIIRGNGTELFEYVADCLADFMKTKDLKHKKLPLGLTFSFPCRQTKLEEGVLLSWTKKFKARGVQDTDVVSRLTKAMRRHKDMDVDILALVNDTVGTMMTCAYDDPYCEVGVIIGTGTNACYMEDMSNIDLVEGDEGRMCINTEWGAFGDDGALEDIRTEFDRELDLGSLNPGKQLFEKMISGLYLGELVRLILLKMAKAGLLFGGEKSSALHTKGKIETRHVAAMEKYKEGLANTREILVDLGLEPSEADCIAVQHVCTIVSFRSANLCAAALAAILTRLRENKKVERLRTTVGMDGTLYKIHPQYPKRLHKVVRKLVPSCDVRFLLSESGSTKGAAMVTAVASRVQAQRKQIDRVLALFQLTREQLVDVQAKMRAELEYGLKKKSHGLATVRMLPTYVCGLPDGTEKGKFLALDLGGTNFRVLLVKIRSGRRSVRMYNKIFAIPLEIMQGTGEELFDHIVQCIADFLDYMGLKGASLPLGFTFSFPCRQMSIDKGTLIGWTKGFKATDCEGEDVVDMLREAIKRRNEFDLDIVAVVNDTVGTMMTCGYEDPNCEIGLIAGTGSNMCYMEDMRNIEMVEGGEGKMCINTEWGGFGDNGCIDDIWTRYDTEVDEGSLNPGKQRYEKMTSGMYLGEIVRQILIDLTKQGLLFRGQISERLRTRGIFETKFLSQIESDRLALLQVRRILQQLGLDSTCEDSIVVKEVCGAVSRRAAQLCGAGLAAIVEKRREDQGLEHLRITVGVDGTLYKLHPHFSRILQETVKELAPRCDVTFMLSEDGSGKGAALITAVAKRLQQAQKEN

Hexokinase-1 = molecular target: T5, Hexokinase-1 (Homo sapiens, UniProt P19367); assay: hexokinase 1 activators, dose response, selectivity assay for HKDC1 activator project, biochemical (AID 504762); format: functional
T5 sequence (P19367 whole entry): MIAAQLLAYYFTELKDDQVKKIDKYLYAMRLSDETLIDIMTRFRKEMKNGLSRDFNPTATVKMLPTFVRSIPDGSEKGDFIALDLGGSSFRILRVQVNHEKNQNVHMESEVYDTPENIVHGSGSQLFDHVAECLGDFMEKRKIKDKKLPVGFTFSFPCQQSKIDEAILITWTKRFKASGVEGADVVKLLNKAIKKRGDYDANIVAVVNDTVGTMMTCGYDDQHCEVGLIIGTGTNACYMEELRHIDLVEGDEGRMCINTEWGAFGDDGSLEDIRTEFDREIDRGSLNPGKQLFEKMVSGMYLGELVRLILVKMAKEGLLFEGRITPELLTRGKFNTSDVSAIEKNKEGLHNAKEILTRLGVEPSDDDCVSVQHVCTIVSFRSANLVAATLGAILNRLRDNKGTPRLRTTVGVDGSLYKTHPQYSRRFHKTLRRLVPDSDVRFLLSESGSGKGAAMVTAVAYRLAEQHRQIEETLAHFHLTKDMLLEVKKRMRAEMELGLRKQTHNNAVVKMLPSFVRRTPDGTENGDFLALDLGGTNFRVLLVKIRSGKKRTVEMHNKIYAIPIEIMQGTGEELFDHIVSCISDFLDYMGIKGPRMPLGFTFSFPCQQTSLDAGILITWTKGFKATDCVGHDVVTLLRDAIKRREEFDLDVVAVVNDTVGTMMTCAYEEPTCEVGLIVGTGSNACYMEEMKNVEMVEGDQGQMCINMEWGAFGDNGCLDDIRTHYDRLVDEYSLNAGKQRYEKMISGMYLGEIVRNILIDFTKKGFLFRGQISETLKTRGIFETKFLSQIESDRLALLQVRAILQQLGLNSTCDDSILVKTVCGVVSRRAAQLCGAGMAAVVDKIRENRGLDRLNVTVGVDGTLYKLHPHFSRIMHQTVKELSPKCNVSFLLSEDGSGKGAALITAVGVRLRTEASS

Nonstructural protein 1 = Nonstructural protein 1 (Influenza A virus, UniProt Q194T2); format: functional, Influenza A virus (A/California/07/2009(H1N1))
[7] = molecular target: T6, Rac GTPase-activating protein 1 (Homo sapiens, UniProt Q9H0H5); assay: MgcRacGAP GTPase-activating activity inhibitors, confirmation, biochemical, ADP Hunter fluorescence, primary and confirmatory (AID 624330); format: functional
T6 sequence (Q9H0H5 whole entry): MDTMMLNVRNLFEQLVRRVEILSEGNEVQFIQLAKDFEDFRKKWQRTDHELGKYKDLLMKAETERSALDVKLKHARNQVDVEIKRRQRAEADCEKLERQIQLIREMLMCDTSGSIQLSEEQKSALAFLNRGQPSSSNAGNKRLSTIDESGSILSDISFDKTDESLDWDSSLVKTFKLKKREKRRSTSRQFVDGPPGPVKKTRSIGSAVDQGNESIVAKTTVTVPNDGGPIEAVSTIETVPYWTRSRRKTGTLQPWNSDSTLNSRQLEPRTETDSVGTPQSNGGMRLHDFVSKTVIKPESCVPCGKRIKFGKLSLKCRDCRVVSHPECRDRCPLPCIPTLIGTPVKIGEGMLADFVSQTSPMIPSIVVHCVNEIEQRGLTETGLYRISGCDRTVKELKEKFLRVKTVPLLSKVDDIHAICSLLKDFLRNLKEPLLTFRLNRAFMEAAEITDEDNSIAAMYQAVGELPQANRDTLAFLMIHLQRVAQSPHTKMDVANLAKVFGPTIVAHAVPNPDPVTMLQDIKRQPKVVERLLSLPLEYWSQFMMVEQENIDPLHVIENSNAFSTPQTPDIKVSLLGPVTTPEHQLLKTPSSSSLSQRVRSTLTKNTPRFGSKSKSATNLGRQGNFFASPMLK

T2 sequence (Q9HC97 whole entry): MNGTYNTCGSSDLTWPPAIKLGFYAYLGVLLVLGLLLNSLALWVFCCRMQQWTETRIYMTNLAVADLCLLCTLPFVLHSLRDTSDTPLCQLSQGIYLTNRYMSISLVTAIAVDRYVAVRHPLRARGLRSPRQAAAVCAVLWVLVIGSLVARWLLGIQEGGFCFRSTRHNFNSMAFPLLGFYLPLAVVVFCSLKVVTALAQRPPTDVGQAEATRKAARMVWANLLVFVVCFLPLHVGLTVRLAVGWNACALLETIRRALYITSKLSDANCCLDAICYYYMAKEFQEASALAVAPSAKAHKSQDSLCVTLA
Chain of G-protein coupled receptor 55 (Q9Y2T6 whole entry): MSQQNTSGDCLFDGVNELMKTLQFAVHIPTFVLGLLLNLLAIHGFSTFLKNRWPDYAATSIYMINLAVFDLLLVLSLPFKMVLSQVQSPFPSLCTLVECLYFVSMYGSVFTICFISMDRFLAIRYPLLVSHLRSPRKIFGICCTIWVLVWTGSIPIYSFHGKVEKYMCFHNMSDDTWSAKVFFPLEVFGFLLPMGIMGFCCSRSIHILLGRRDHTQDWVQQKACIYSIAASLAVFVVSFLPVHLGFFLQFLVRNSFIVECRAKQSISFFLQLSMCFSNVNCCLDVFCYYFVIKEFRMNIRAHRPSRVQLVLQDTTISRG
Chain of Nonstructural protein 1 (Q194T2 whole entry): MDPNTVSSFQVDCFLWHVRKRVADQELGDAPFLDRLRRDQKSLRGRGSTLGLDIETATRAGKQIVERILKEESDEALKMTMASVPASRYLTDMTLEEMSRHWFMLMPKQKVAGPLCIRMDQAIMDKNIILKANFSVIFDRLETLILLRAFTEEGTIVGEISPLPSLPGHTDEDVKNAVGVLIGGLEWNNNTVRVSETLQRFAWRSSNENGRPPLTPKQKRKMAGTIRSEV

Compound: O=C(Nc1ccc2nc(-c3ccco3)c(-c3ccco3)nc2c1)NC1CCCC1
- IC50 [1]: 1.1 µM (active)

Compound: COC(=O)c1cnn(-c2ccc(Cl)cc2)c1/C=N/NC(=S)Nc1ccccc1
- IC50 [2]: 21.8 µM (inactive)
- IC50 [3]: 0.211 µM (active)
- IC50 [4]: > 32 µM (inactive)

Compound: Cc1ccc(C(=O)n2nnc3ccccc32)cc1
- IC50 (Coagulation factor XII [5]): 2.29 µM (active)

Compound: CCCCC1(CC)C(=O)NC(=O)N=C1Nc1ccc(OC)cc1 (stereo not given)
- IC50 (Coagulation factor XII [6]): > 50 µM (inactive)

Compound: Oc1ccc(/C=N/NC(=S)Nc2cccnc2)c(O)c1
- IC50 (Hexokinase HKDC1): > 80 µM (inactive)
- EC50 (Hexokinase-1): > 80 µM (inactive)
- IC50 (Nonstructural protein 1): 1.82 µM (active)
- IC50 [7]: 40.5 µM (active)
